pIC50: −log10 of the molar value. Like-named read-outs stand apart in the source and are kept apart here.

In the test the target is T1, human T-bet (Homo sapiens, UniProt Q9UL17).
T1 construct: expressed in transfected cells; host or cells: engineered HEK cells (HEKT-bet)
T1 sequence (Q9UL17 1-535): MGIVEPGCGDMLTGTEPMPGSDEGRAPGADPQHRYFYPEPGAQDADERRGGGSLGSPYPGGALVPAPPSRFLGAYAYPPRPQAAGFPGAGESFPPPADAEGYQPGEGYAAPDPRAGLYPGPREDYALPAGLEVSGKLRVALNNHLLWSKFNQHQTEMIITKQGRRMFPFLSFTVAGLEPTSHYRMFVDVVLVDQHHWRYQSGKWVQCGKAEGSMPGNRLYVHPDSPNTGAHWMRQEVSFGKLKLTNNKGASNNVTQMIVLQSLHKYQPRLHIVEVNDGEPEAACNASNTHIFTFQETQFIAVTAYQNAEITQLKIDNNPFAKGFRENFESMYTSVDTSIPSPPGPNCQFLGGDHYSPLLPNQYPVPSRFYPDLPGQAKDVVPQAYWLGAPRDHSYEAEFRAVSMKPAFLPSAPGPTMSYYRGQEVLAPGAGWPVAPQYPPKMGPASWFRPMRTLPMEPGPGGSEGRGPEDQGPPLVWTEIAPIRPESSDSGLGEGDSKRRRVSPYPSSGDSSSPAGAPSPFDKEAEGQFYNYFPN
Nature of the test: HEKT-bet-luc assay (T-bet dependent luciferase reporter in engineered HEK cells). It is filed as cell-based. To be noted: HEKT-bet cells, compound 24 hours, IC50 normalized to reference ER-213038, read-out: IC50. How it is done:
HEKT-bet-luc assay: This assay measures a T-bet dependent reporter (luciferase) activity in engineered HEK cells that express a human T-bet and a T-box responsive element driving luciferase reporter. HEKT-bet cells were plated at 2×10^4/well in 96-well plate and compound was added into cell culture for 24 hours. Luciferase activity was measured by adding 50 μl of Steady-Glo reagent (Promega) and samples were read in Victor V reader (PerkinElmer). The IC50 values were calculated utilizing a maximum value corresponding to the amount of luciferase in the absence of a test compound and a minimum value corresponding to a test compound value obtained at maximum inhibition.
Determination of Normalized HEKT-bet IC50 values: Compounds were assayed in microtiter plates. Each plate included a reference compound which was ER-213038. The un-normalized IC50 value for a particular compound was divided by the IC50 value determined for the reference compound in the same microtiter plate to provide a relative potency value. The relative potency value was then multiplied by the established potency of the reference compound to provide the normalized HEKT-bet IC50 value. […] The IC50 values provided herein were obtained using this normalization method.

Take `COCCN1C(=O)N(Cc2cccc(OC)c2)C(=O)C12CCN(C/C=C/c1ccc(OC)cc1)CC2` [Example 108]: the pIC50 (Table 3) was 5.83.

For `COc1cccc(CN2C(=O)N(CC=C(C)C)C3(CCN(Cc4ccccc4)CC3)C2=O)c1` [Example 109], the pIC50 (Table 3) was 5.82.

As for `COCCN1C(=O)N(Cc2cccc(OC)c2)C(=O)C12CCN(CC=C(c1ccccc1)c1ccccc1)CC2` [Example 110], the pIC50 (Table 3) is 5.81.

`COCCN1C(=O)N(Cc2cccc(OC)c2)C(=O)C12CCN(Cc1cc(F)c(O)c(OC)c1)CC2` [Example 111]: where the note is “Table 3”, the pIC50 was 5.81.

Take `COc1cccc(CN2C(=O)N(CCOCc3ccccc3)C3(CCN(Cc4ccccc4)CC3)C2=O)c1` [Example 112]: the pIC50 (Table 3) was 5.81.

For the compound `COCCN1C(=O)N(Cc2cccc(OC)c2)C(=O)C12CCN(CC(=O)C13CC4CC(CC(C4)C1)C3)CC2` [Example 113], the pIC50 (Table 3) is 5.78.

In the case of `COCCN1C(=O)N(Cc2cc(C(C)(C)C)cc(C(C)(C)C)c2)C(=O)C12CCN(Cc1ccccc1)CC2` [Example 114], for the setting “Table 3”, the pIC50 is 5.76.

Regarding `COCCN1C(=O)N(Cc2cccc(OC)c2)C(=O)C12CCN(Cc1ccc3ccc4cccc5ccc1c3c45)CC2` [Example 115], where the note is “Table 3”, the pIC50 is 5.74.

In the case of `COc1cccc(CN2C(=O)N(Cc3ccc(Cl)cc3)C3(CCN(Cc4ccccc4)CC3)C2=O)c1` [Example 116], where the note is “Table 3”, the pIC50 is 5.74.

Turning to `COCCN1C(=O)N(CCCCOc2ccccc2)C(=O)C12CCN(Cc1ccccc1)CC2` [Example 117], the pIC50 (Table 3) is 5.74.

For `COCCN1C(=O)N(Cc2cccc(OC)c2)C(=O)C12CCN(Cc1cc(O)c(OC)c(OC)c1)CC2` [Example 118], for the setting “Table 3”, the pIC50 was 5.73.

Regarding `COCCN1C(=O)N(CCOCc2ccccc2)C(=O)C12CCN(Cc1ccccc1)CC2` [Example 119], the pIC50 (Table 3) is 5.72.

Consider `COCCN1C(=O)N(Cc2cccc(OC)c2)C(=O)C12CCN(Cc1ccc(-c3cccs3)s1)CC2` [Example 120], for which the pIC50 (Table 3) is 5.70.

As for `COc1cc(CN2CCC3(CC2)C(=O)N(C/C=C/c2ccccc2)C(=O)N3C)cc(OC)c1` [Example 121], the pIC50 (Table 4) was 7.60.

In the case of `COCCN1C(=O)N(Cc2cccc(OC)c2)C(=O)C12CCN(Cc1c(C)ccc3ccccc13)CC2` [Example 123], the pIC50 (Table 4) was 7.22.

Regarding `CCN1C(=O)N(C/C=C/c2ccccc2)C(=O)C12CCN(Cc1cccc(C)c1)CC2` [Example 125], the pIC50 (Table 4) is 7.17.

For `COc1cc(CN2CCC3(CC2)C(=O)N(C/C=C/c2ccccc2)C(=O)N3Cc2cccc(-n3cccc3)c2)cc(OC)c1` [Example 126], under “Table 4”, the negative-log IC50 (pIC50) is 7.14.

In the case of `COCCN1C(=O)N(Cc2cccc(OC)c2)C(=O)C12CCN(Cc1ccc(C)c3ccccc13)CC2` [Example 127], the pIC50 (Table 4) is 7.09.

For the compound `COCCN1C(=O)N(Cc2cccc(OC)c2)C(=O)C12CCN(Cc1cccc3ccccc13)CC2` [Example 128], the pIC50 (Table 4) is 7.07.

In the case of `COCCN1C(=O)N(Cc2cccc(OC)c2)C(=O)C12CCN(Cc1c(OC)ccc3ccccc13)CC2` [Example 129], under “Table 4”, the pIC50 is 7.03.

With `COCCN1C(=O)N(C/C=C/c2ccccc2)C(=O)C12CCN(Cc1cccc3ccccc13)CC2` [Example 131], where the note is “Table 4”, the pIC50 is 7.00.

In the case of `COCCN1C(=O)N(C/C=C/c2ccccc2)C(=O)C12CCN(Cc1cccc(OC)c1)CC2` [Example 132], the pIC50 (Table 4) was 7.00.

On to `COCCN1C(=O)N(Cc2cccc(OC)c2)C(=O)C12CCN(Cc1cccc3ccccc13)CC2` [Example 133], for which the pIC50 (Table 4) was 6.92.

On to `COCCN1C(=O)N(Cc2cccc(OC)c2)C(=O)C12CCN(Cc1cccc(C)c1C)CC2` [Example 134], for which the pIC50 (Table 4) is 6.92.

As to `COCCN1C(=O)N(Cc2cccc(OC)c2)C(=O)C12CCN(Cc1ccc3cc(OC)ccc3c1)CC2` [Example 135], where the note is “Table 4”, the pIC50 was 6.91.

Consider `COCN1C(=O)N(C/C=C/c2ccccc2)C(=O)C12CCN(Cc1cc(OC)cc(OC)c1)CC2` [Example 136], for which the pIC50 (Table 4) was 6.91.

Consider `CCN1C(=O)N(Cc2cccc(OC)c2)C(=O)C12CCN(Cc1cc(OC)cc(OC)c1)CC2` [Example 137], for which the pIC50 (Table 4) was 6.91.

On to `COc1cccc(CN2C(=O)N(Cc3ccncc3)C3(CCN(Cc4cccc5ccccc45)CC3)C2=O)c1` [Example 138], for which the pIC50 (Table 4) was 6.90.

In the case of `COCCN1C(=O)N(Cc2cccc(OC)c2)C(=O)C12CCN(Cc1cc(C)c(C)cc1C)CC2` [Example 139], the pIC50 (Table 4) was 6.90.

`COc1cccc(CN2C(=O)N(Cc3ccc(-n4cccn4)cc3)C3(CCN(Cc4cccc5ccccc45)CC3)C2=O)c1` [Example 140]: where the note is “Table 4”, the pIC50 was 6.90.

In the case of `COCCN1C(=O)N(Cc2cccc(OC)c2)C(=O)C12CCN(Cc1c(C)cccc1C)CC2` [Example 141], under “Table 4”, the pIC50 was 6.89.

As for `CCOc1ccc2ccccc2c1CN1CCC2(CC1)C(=O)N(Cc1cccc(OC)c1)C(=O)N2CCOC` [Example 142], the negative-log IC50 (pIC50) (Table 4) is 6.89.

As to `COc1cc(CN2CCC3(CC2)C(=O)N(C/C=C/c2ccccc2)C(=O)N3Cc2ccccn2)cc(OC)c1` [Example 143], the pIC50 (Table 4) is 6.87.

Consider `COc1cc(CN2CCC3(CC2)C(=O)N(Cc2cc(OC)cc(OC)c2)C(=O)N3C)cc(OC)c1` [Example 144], for which, where the note is “Table 4”, the pIC50 was 6.87.

Turning to `COc1cc(CN2CCC3(CC2)C(=O)N(Cc2cc(OC)cc(OC)c2)C(=O)N3Cc2ccncc2)cc(OC)c1` [Example 145], the pIC50 (Table 4) is 6.86.

Turning to `COCCN1C(=O)N(Cc2cccc(OC)c2)C(=O)C12CCN(Cc1cc(OC)cc(OC)c1F)CC2` [Example 146], the pIC50 (Table 4) was 6.85.

In the case of `COCCN1C(=O)N(Cc2cccc(OC)c2)C(=O)C12CCN(Cc1ccc3c4c(cccc14)CC3)CC2` [Example 147], under “Table 4”, the pIC50 is 6.85.

Regarding `COc1cccc(CN2C(=O)N(C)C3(CCN(Cc4cccc5ccccc45)CC3)C2=O)c1` [Example 148], for the setting “Table 4”, the pIC50 is 6.84.

For the compound `COCCN1C(=O)N(Cc2cccc(OC)c2)C(=O)C12CCN(Cc1cc(C)ccc1C)CC2` [Example 150], the pIC50 (Table 4) is 6.83.

With `COCCN1C(=O)N(Cc2ccc3ccccc3c2)C(=O)C12CCN(Cc1cc(OC)cc(OC)c1)CC2` [Example 151], the pIC50 (Table 4) is 6.83.

As to `COCCN1C(=O)N(C/C=C/c2cccc3ccccc23)C(=O)C12CCN(Cc1ccccc1)CC2` [Example 152], the pIC50 (Table 4) is 6.83.

As to `COCCN1C(=O)N(CCCOc2ccccc2)C(=O)C12CCN(Cc1cccc3ccccc13)CC2` [Example 153], the pIC50 (Table 4) was 6.82.

With `COCN1C(=O)N(Cc2cc(OC)cc(OC)c2)C(=O)C12CCN(Cc1cc(OC)cc(OC)c1)CC2` [Example 154], the pIC50 (Table 4) is 6.82.

On to `COc1cccc(CN2C(=O)N(Cc3ccc(-n4cccn4)cc3)C3(CCN(Cc4cc(OC)cc(OC)c4)CC3)C2=O)c1` [Example 155], for which the pIC50 (Table 4) was 6.80.

On to `COCCN1C(=O)N(Cc2cccc(OC)c2)C(=O)C12CCN(Cc1cccc(-c3ccc(O)cc3)c1)CC2` [Example 156], for which the pIC50 (Table 4) was 6.80.

`COCCN1C(=O)N(Cc2cccc(OC)c2)C(=O)C12CCN(Cc1cc3ccccc3c3ccccc13)CC2` [Example 157]: the pIC50 (Table 4) was 6.79.

In the case of `CCc1ccccc1CN1CCC2(CC1)C(=O)N(Cc1cccc(OC)c1)C(=O)N2CCOC` [Example 158], the pIC50 (Table 4) is 6.79.

With `COCCN1C(=O)N(Cc2cccc(OC)c2)C(=O)C12CCN(Cc1cccc(Br)c1)CC2` [Example 159], the pIC50 (Table 4) is 6.78.

As for `COCCN1C(=O)N(Cc2cccc(OC)c2)C(=O)C12CCN(Cc1c3ccccc3cc3ccccc13)CC2` [Example 160], the pIC50 (Table 4) is 6.77.

For the compound `COCCN1C(=O)N(Cc2cccc(OC)c2)C(=O)C12CCN(Cc1ccc3ccccc3c1)CC2` [Example 161], the pIC50 (Table 4) was 6.77.

For the compound `COCCN1C(=O)N(Cc2ccc3ccccc3c2)C(=O)C12CCN(Cc1cccc(C)c1)CC2` [Example 162], where the note is “Table 4”, the pIC50 is 6.76.

Take `COCCN1C(=O)N(Cc2cccc(F)c2)C(=O)C12CCN(Cc1cc(OC)cc(OC)c1)CC2` [Example 163]: the pIC50 (Table 4) was 6.74.

Take `COCCN1C(=O)N(Cc2cccc(OC)c2)C(=O)C12CCN(Cc1c(C)c(C)c(C)c(C)c1C)CC2` [Example 164]: the pIC50 (Table 4) was 6.74.

On to `COCCN1C(=O)N(C/C=C/c2ccccc2F)C(=O)C12CCN(Cc1ccccc1)CC2` [Example 165], for which the pIC50 (Table 4) was 6.74.

As to `COCCN1C(=O)N(Cc2ccc3ccccc3c2)C(=O)C12CCN(Cc1cccc(OC)c1)CC2` [Example 166], under “Table 4”, the pIC50 was 6.74.

Turning to `CCN1C(=O)N(Cc2cccc(OC)c2)C(=O)C12CCN(Cc1cc(OC)cc(OC)c1)CC2` [Example 167], the pIC50 (Table 4) is 6.73.

Turning to `CCN1C(=O)N(Cc2cccc(OC)c2)C(=O)C12CCN(Cc1cccc3ccccc13)CC2` [Example 168], the pIC50 (Table 4) is 6.72.

Values taken from patent US7666875B2, “Hydantoin compounds” (Eisai R&D Management Co., Ltd., priority 2005, dated 2010).
